Experimental data reported in US5614192A, “T cell receptor peptides as therapeutics for immune-related disease” (Connective Therapeutics, Inc., priority 1993, dated 1997).

Experiments:
[1] = test system: lymph node cells and Vβ8-44-54 selected T cell line
TCR Vβ8(39-59) peptide = assay type: binding, rat
[2] = test system: T cell lines derived from rats protected from EAE; assay: Proliferation of LN cells and T cell lines from rats protected by TCR Vβ8 peptide (Table 12); assay type: cell-based, rat
T cell immunity = T cell immunity / DH response induced by peptide; assay type: in vivo; settings: Lewis rats
From the text: Immunogenicity of peptides useful in the present invention can be screened by well-known methods, such as use of a DH response in an animal. In such a response, an animal is "sensitized" by injection of an appropriate dose of an antigen, typically subcutaneously (SC), frequently with an adjuvant, such as complete Freund's adjuvant (CFA). Generally about 5-15 days later, the response is "elicited" by challenging the animal, typically intradermally (ID), with an appropriate dose of the antigen, typically in saline or other buffer. The response is assessed 24-48 hours later. […]
The desired peptides, with sequences determined as described above, are prepared using standard synthesis techniques including solution and solid phase sequential amino acid conjugation and recombinant production in prokaryotic or eukaryotic hosts. Verification that the peptide prepared is immunogenic can easily be determined using a DH reaction in an animal (e.g., mouse or rat), as described above. […] The ear swelling response, measured 24 or 48 hours after challenge, serves as a simple and reliable measure of the presence of T cell-mediated immunity to the peptide.

EAE [3] = assay: Prevention, suppression and treatment of EAE with TCR Vβ8-39-59 peptide (Table 25); assay type: in vivo, Lewis rats; settings: peptide/CFA s.q.
EAE [4] = assay: Clinical EAE in rats treated with TCR Vβ8(39-59) before or after onset (Table 22); assay type: in vivo; settings: Exp. 2; control TCR peptide, day 13
Procedure: The ability of the TCR Vβ8(39-59) given either SC (in adjuvant) or ID (in saline) to disrupt the disease process when given at various times after induction of EAE with GPBP was tested (Table 22). […] In both cases, with both routes of injection of the peptide, there was a significant reduction in the duration of the disease, though not in the severity or time of onset. The efficacy of the peptide given in saline via the ID route is of particular importance to human therapy, as it is preferred to SC injection in adjuvant.
In Experiment 2, the time of ID administration of the TCR peptide was varied, as was the dose. […] A delay in onset of the disease was also observed. Furthermore, the percentage of animals showing signs of the disease decreased. A larger dose of the peptide (200 μg) appeared less efficacious than the lower dose, possibly due to a short-term overload of the peptide which could have comprised the immune response generated against the TCR. Treatment with a similarly sized peptide corresponding to an irrelevant TCR had no effect on onset, severity or incidence of EAE, but may have reduced the duration somewhat (last line of Table 22).

EAE [5] = assay: Prevention and suppression of EAE by immunization with TCR Vβ8(39-59) (Table 17); assay type: in vivo, Lewis rats; settings: 100 μg peptide/CFA day 0, Gp-S49S (100 μg) challenge day 0
LNC and T cell lines = assay: T cell proliferation after treatment of EAE with TCR Vβ8 39-59/CFA (Table 27); assay type: cell-based, rats
Procedure: Lymphocyte Proliferation: Activation of T cells was measured by ^3 H-Tdy uptake. 500,000 lymph node cells or 20,000 line cells in the presence of 1 million irradiated thymic accessory cells were incubated with culture medium and antigens in microtiter wells for 18 hours prior to the addition of 0.5 μBq labeled thymidine. The cell cultures were harvested onto glass fiber filters and counted by liquid scintillation techniques. Mean CPM were calculated from triplicate cultures. Standard deviations (SD) from replicate cultures varied <10% from the mean value.
^a Treated rats were injected s.q. with 50 μg TCR Vβ839-59
^b LW cells collected after the untreated group recovered from EAE

EAE [6] = assay: Prevention of EAE by immunization with TCR peptide (Example VI); assay type: in vivo, Lewis rats; settings: for protection from EAE: Lewis rats
From the text: EAE is a well-recognized rat model of the human autoimmune disease, multiple sclerosis. […] In this model, the disease is induced by injecting the subject rat with an encephalitogenic form of myelin basic protein, such as, for example, guinea pig basic protein (GPBP) or a synthetic peptide that corresponds to residues 72-89 of GPBP (GPBP(72-89)). Injection of either of these peptides in complete Freund's adjuvant (CFA) induces encephalitogenic T cell clones that utilize preferentially the rat homologs of mouse TCR Vα2 and Vβ8 genes (Chou, Y. K., et al., J. Neurosci. Res. 22:181-187 (1989); Burns, F. R., et al., J. Exp. Med. 169:27-39 (1989)).
^1 EAE was induced by SC challenge with 50 μg GPBP + 400 μg
^2 Rats were injected SC with either: (1) 100 μg of the TCR peptid
^3 Values represent the mean of the maximum severity of EAE. 0, no

DTH response = assay: Delayed hypersensitivity responses to TCR peptides, ear swelling (Table 26); assay type: in vivo, Lewis rats
[7] = 100 μg peptide/CFA SC 30 days before GPBP/CFA

Sequence: APGGTLQQLFYSFNVGQSLF [TCR Vβ14 peptide, control peptide, residues 39-59 of rat TCR homologous to mouse Vβ14, reference compound]
- Response of Lymph Node Cells [1]: 18 ± 2
- Response of T Cell Line [1]: 9 ± 1
- absorbance of serum on TCR Vβ8(39-59) peptide (A405) (TCR Vβ8(39-59) peptide): 0.02±0.01 units
- T Cell Proliferation ([2]; 1st value column (head not given; LN cells of protected rats)): 10 cpm × 10^-3
- T Cell Proliferation ([2]; 2nd value column (head not given, TCR Vβ8(39-59)-selected line)): 2 cpm × 10^-3
- induction of T cell immunity (T cell immunity): did induce immunity
- Duration (EAE [3]; Day 0): 6.4 ± 0.3 days
- EAE/TOTAL (EAE [3]; Day 0): 6/6
- Max Clin. Signs (EAE [3]; Day 0): 3.3 ± 0.5
- Onset (EAE [3]; Day 0): 12
- Duration (EAE [3]; Day -40): 6.1 ± 0.6 days
- EAE/TOTAL (EAE [3]; Day -40): 8/8
- Max Clin. Signs (EAE [3]; Day -40): 3.2 ± 0.3
- Onset (EAE [3]; Day -40): 12
- Duration (EAE [3]; Day onset): 6.0 ± 1.5 days
- EAE/TOTAL (EAE [3]; Day onset): 4/4
- Max Clin. Signs (EAE [3]; Day onset): 3.0 ± 0.4
- Onset (EAE [3]; Day onset): 12
- Day of Onset (EAE [4]): 13.7 ± 0.5
- Disease Duration (EAE [4]): 3.5 ± 0.5
- Disease Incidence (EAE [4]): 6/6
- Disease Severity (EAE [4]): 2.5 ± 0.8
- Clinical Score (EAE [5]): 2.9
- Proliferation (LNC and T cell lines; Treated rats, line Vβ8/1st): 8 ± 2 CPM/1000
- Proliferation (LNC and T cell lines; Untreated rats (GPBP/CFA only), LNC): 29 ± 4 CPM/1000
- Proliferation (LNC and T cell lines; Untreated rats, line BP/1st): 17 ± 2 CPM/1000
- Proliferation (LNC and T cell lines; Untreated rats, line Vβ8/1st): 11 ± 2 CPM/1000
- Proliferation (LNC and T cell lines; Untreated rats, line Vβ14/1st): 25 ± 6 CPM/1000
- EAE Day of Onset (EAE [6]; [7]): 14 ± 2
- EAE Duration (EAE [6]; [7]): 6 ± 2
- EAE Severity (mean of maximum severity, scale 0-4) (EAE [6]; [7]): 3.1 ± 0.3
- EAE Incidence (EAE [6]; 100 μg peptide/CFA SC 30 days before challenge with 50 μg GPBP/CFA): 4/4
- protection from EAE (EAE [6]): did not confer protection against EAE
- protection from EAE (EAE [6]; listed as Vβ14(39-59)): did not provide protection from EAE
- 48 Hour DTH Response (DTH response; GP-BP/CFA immunized rats, ear test Day 12 (EAE onset)): 11 ± 4
- 48 Hour DTH Response (DTH response; Normal or saline/CFA rats, ear test Day 12): 10 ± 4
- 48 Hour DTH Response (DTH response; TCR Vβ8 peptide/CFA immunized rats, ear test Day 30): 9 ± 3
- 48 Hour DTH Response (DTH response; TCR Vβ814 (so in the source) peptide/CFA immunized rats, ear test Day 30): 40 ± 4
